According to US20260083865A1, “PROSTATE SPECIFIC MEMBRANE ANTIGEN (PSMA) LIGANDS AND USE THEREOF” (priority 2022, published 2026):
Numbered stars: 1 amine (or outer) side, 2 acyl side, 3 side chain; on linkers, the order of the positions; unused ones are H or OH. Bridge positions count the residues as written; N and C are the ends. Square brackets hold non-standard residues; d marks the D form. Peptide text beside a SMILES is read from it. * marks the point of attachment. X14 = NC(=O)[C@H](CCCCNC(=O)CCCC[C@@H]1SC[C@@H]2NC(=O)N[C@@H]21)NC(=O)CCC(=O)NCCCOCCOCCOCCCNC(=O)CCC(=O)NCCCOCCOCCOCCCN*; X9 = C=C(N([C@@H](Cc1ccc(Cl)cc1)C(=O)[*:2])[*:1])C(C)(C)NC(=O)[C@@H](NC(C)=O)[C@@H](C)O; DOTA = O=C(O)CN1CCN(CC(=O)O)CCN(CC(=O)*)CCN(CC(=O)O)CC1; Arg(Me2a) = CN(C)C(=N)NCCC[C@H](N)C(=O)O; Phe(4-Cl) = N[C@@H](Cc1ccc(Cl)cc1)C(=O)O; 1Nal = N[C@@H](Cc1cccc2ccccc12)C(=O)O; Arg(Me) = CNC(=N)NCCC[C@H](N)C(=O)O; Lys(iPr) = CC(C)NCCCC[C@H](N)C(=O)O; NMeR = CN[C@@H](CCCNC(=N)N)C(=O)O; X1 = O=C(CC1CCN([*:1])CC1)[*:2]; Cit = NC(=O)NCCC[C@H](N)C(=O)O; Lys(Me) = CNCCCC[C@H](N)C(=O)O; Tle = CC(C)(C)[C@H](N)C(=O)O; αMeP = C[C@@]1(C(=O)O)CCCN1; Nle = CCCC[C@H](N)C(=O)O; Orn = NCCC[C@H](N)C(=O)O; Aib = CC(C)(N)C(=O)O; Guanidino = N=C(N)N*

Experiments:
[1] = target: T1, Fc-fusion protein of human PSMA (hPSMA-Fc) (Homo sapiens, UniProt Q04609); assay: Surface plasmon resonance assay (Biacore T200, single cycle kinetic); type: binding; details: SPR, hPSMA-Fc, single cycle kinetic, 25° C.; category; read-out: pKD CAT (converted)
T1 construct: purchased Acro Biosystems PSA-H5264
T1 sequence (Q04609 44-750 limits assumed): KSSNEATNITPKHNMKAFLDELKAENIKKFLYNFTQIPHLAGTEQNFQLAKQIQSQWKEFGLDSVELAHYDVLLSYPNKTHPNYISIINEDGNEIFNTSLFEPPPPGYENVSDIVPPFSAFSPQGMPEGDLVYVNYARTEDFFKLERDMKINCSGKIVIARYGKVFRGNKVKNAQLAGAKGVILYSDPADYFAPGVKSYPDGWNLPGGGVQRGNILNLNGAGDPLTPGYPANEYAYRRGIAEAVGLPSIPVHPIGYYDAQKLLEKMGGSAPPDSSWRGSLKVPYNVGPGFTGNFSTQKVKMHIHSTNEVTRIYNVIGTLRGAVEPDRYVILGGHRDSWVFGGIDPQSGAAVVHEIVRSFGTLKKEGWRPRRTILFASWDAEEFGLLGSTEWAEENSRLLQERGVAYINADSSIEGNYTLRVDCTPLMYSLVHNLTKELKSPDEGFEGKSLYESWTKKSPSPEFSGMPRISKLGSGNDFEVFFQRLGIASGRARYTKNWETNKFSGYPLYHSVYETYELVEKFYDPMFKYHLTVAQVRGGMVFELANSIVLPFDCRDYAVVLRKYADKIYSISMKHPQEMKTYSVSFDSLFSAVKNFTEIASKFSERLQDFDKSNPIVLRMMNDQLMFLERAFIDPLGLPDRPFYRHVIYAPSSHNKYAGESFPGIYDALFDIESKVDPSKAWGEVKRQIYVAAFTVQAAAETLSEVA
Method in brief: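 hPSMA-Fc was captured (~1000 RU) on an Fc-binding-peptide CM5 chip, and compounds were run in single cycle kinetic mode at 25° C in HBST with 0.1% DMSO. Double-blank-corrected sensorgrams were fitted to a 1:1 Langmuir model to give KD, reported as pKD.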

[2] = target: T2, PSMA-expressing C4-2 cells (Homo sapiens, UniProt Q04609); assay: FACS binding assay (competition with 50 nM PSM-0183); details: FACS binding, C4-2 cells, competition with 50 nM PSM-0183; category; read-out: pIC50 [C4-2] CAT (converted)
T2 construct: PSMA-expressing C4-2 cells (ATCC, Cat. No. CRL-3314) were cultured in RPMI-1640; host or cells: C4-2 cells
T2 sequence (Q04609 whole entry): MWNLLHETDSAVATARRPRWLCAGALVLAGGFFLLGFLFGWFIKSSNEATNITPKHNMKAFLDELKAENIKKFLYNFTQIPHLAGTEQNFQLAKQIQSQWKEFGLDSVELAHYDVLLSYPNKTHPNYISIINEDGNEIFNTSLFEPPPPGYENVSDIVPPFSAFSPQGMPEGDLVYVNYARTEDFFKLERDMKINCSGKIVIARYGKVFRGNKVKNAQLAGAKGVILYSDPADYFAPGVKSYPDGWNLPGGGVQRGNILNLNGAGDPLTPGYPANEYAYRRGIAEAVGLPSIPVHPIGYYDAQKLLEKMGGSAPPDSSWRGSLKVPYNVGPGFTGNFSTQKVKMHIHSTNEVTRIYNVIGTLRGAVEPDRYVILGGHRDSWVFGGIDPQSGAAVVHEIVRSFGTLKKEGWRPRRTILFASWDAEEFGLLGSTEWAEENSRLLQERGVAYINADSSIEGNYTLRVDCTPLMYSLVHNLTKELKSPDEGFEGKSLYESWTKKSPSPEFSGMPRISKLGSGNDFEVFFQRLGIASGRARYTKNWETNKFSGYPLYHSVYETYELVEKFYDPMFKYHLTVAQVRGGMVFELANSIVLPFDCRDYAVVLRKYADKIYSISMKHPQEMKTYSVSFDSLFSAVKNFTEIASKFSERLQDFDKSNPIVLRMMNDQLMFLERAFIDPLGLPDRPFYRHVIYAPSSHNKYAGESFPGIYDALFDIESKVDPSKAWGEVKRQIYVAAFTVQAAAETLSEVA
Method in brief: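 C4-2 cells were incubated 1 h at 4 °C with 50 nM AF488-labelled peptide PSM-0183 plus increasing test compound concentrations, then washed twice in ice-cold buffer. Median fluorescence in the AF488 channel was read by flow cytometry. IC50/pIC50 was derived by 4PL fitting of MFI versus concentration.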

Structure (SMILES)	Kd [1] [nM]	IC50 [2] [nM]
CC(=O)N[C@H](C(=O)NC(C)(C)C(=O)N[C@@H](Cc1ccccc1)C(=O)N[C@H]1CSSC[C@@H](C(=O)N[C@H](C(=O)N[C@H](C(N)=O)[C@@H](C)O)C(C)(C)C)NC(=O)[C@H](CC(N)=O)NC(=O)[C@]2(C)CCCN2C(=O)[C@H](CCCNC(=N)N)NC(=O)[C@H](CCCCN)NC1=O)[C@@H](C)O [PSM-0233, Ac-Thr-Aib-Phe-[Cys-Lys-Arg-Pam-Asn-Cys]-Tle-Thr-NHZ] (Ac-T[Aib]FCKR[αMeP]NC[Tle]T-NH2; disulfide 4-9)	< 12.6	< 200
CCCC[C@@H]1NC(=O)[C@@H](NC(=O)[C@H](Cc2ccc(Cl)cc2)NC(=O)C(C)(C)NC(=O)[C@@H](NC(C)=O)[C@@H](C)O)CSSC[C@@H](C(=O)N[C@H](C(=O)N[C@H](C(N)=O)[C@@H](C)O)C(C)(C)C)NC(=O)[C@H](CC(N)=O)NC(=O)C(C)(C)NC(=O)[C@H](CCC(=O)NC(=N)N)NC1=O [PSM-0236, Ac-Thr-Aib-Pcf-[Cys-Nle-Gln(Gu)-Aib-Asn-Cys]-Tle-Thr-NH2] (Ac-T[Aib][Phe(4-Cl)]C[Nle]E(Guanidino)[Aib]NC[Tle]T-NH2; disulfide 4-9)	< 12.6	< 200
C=C(N[C@@H](Cc1ccc(Cl)cc1)C(=O)N[C@H]1CSSC[C@@H](C(=O)N[C@H](C(=O)N[C@H](C(N)=O)[C@@H](C)O)C(C)(C)C)NC(=O)[C@H](CCCNC(=N)N)NC(=O)C(C)(C)NC(=O)[C@H](CCCNC(N)=O)NC(=O)[C@H](CCCCN)NC1=O)C(C)(C)NC(=O)[C@@H](NC(C)=O)[C@@H](C)O [PSM-0240, Ac-Thr-Aib-Pcf-[Cys-Lys-Cit-Aib-Arg-Cys]-Tle-Thr-NH2] (H-[X9]CK[Cit][Aib]RC[Tle]T-NH2; disulfide 2-7)	< 12.6	< 200
CNC(=N)NCCC[C@@H]1NC(=O)[C@H](CCCCNC(C)C)NC(=O)[C@@H](NC(=O)[C@H](Cc2ccc(Cl)cc2)NC(=O)C(C)(C)NC(=O)[C@@H](NC(=O)CC2CCN(C(=O)CN3CCN(CC(=O)O)CCN(CC(=O)O)CCN(CC(=O)O)CC3)CC2)[C@@H](C)O)CSSC[C@@H](C(=O)N[C@H](C(=O)N[C@H](C(N)=O)[C@@H](C)O)C(C)(C)C)NC(=O)[C@H](CC(N)=O)NC(=O)C(C)(C)NC1=O [PSM-0244, DOTA-Cmp-Thr-Aib-Pcf-[Cys-Kip-Arg(Me)-Aib-Asn-Cys]-Tle-Thr-NH2] ({DOTA}-[X1]T[Aib][Phe(4-Cl)]C[Lys(iPr)][Arg(Me)][Aib]NC[Tle]T-NH2; disulfide 5-10)	< 12.6	< 200
C[C@@H](O)[C@H](NC(=O)[C@@H](NC(=O)[C@@H]1CSSC[C@H](NC(=O)[C@H](Cc2ccc(Cl)cc2)NC(=O)C(C)(C)NC(=O)[C@@H](NC(=O)CC2CCN(C(=O)CN3CCN(CC(=O)O)CCN(CC(=O)O)CCN(CC(=O)O)CC3)CC2)[C@@H](C)O)C(=O)N[C@@H](CCCCN)C(=O)N[C@@H](CCCN)C(=O)NC(C)(C)C(=O)N[C@@H](CC(N)=O)C(=O)N1)C(C)(C)C)C(N)=O [PSM-0245, DOTA-Cmp-Thr-Aib-Pcf-[Cys-Lys-Orn-Aib-Asn-Cys]-Tle-Thr-NH2] ({DOTA}-[X1]T[Aib][Phe(4-Cl)]CK[Orn][Aib]NC[Tle]T-NH2; disulfide 5-10)	< 12.6	< 200
CNCCCC[C@@H]1NC(=O)[C@@H](NC(=O)[C@H](Cc2ccc(Cl)cc2)NC(=O)C(C)(C)NC(=O)[C@@H](NC(=O)CC2CCN(C(=O)CN3CCN(CC(=O)O)CCN(CC(=O)O)CCN(CC(=O)O)CC3)CC2)[C@@H](C)O)CSSC[C@@H](C(=O)N[C@H](C(=O)N[C@H](C(N)=O)[C@@H](C)O)C(C)(C)C)NC(=O)[C@H](CC(N)=O)NC(=O)[C@@H](C)NC(=O)[C@H](CCCNC(=N)NC)NC1=O [PSM-0246, DOTA-Cmp-Thr-Aib-Pcf-[Cys-Lys(Me)-Arg(Me)-ala-Asn-Cys]-Tle-Thr-NH2] ({DOTA}-[X1]T[Aib][Phe(4-Cl)]C[Lys(Me)][Arg(Me)][dA]NC[Tle]T-NH2; disulfide 5-10)	< 12.6	< 200
C[C@@H](O)[C@H](NC(=O)[C@@H](NC(=O)[C@@H]1CSSC[C@H](NC(=O)[C@H](Cc2ccc(Cl)cc2)NC(=O)C(C)(C)NC(=O)CC2CCN(C(=O)CN3CCN(CC(=O)O)CCN(CC(=O)O)CCN(CC(=O)O)CC3)CC2)C(=O)N[C@@H](CCCCN)C(=O)N[C@@H](CCCNC(=N)N)C(=O)NC(C)(C)C(=O)N[C@@H](CC(N)=O)C(=O)N1)C(C)(C)C)C(N)=O [PSM-0248, DOTA-Cmp-Aib-Pcf-[Cys-Lys-Arg-Aib-Asn-Cys]-Tle-Thr-NH2] ({DOTA}-[X1][Aib][Phe(4-Cl)]CKR[Aib]NC[Tle]T-NH2; disulfide 4-9)	12.6 to 126	< 200
CC(=O)N[C@H](C(=O)NC(C)(C)C(=O)N[C@@H](Cc1ccccc1)C(=O)N[C@H]1CSSC[C@@H](C(=O)N[C@H](C(=O)N[C@H](C(=O)N2CCC(CC(=O)N[C@H](CCCCNC(=O)CN3CCN(CC(=O)O)CCN(CC(=O)O)CCN(CC(=O)O)CC3)C(N)=O)CC2)[C@@H](C)O)C(C)(C)C)NC(=O)[C@H](CC(N)=O)NC(=O)C(C)(C)NC(=O)[C@H](CCCNC(N)=O)NC(=O)[C@H](CCCCN)NC1=O)[C@@H](C)O [PSM-0252, Ac-Thr-Aib-Phe-[Cys-Lys-Cit-Aib-Asn-Cys]-Tle-Thr-Cmp-lys(DOTA)-NH2] (Ac-T[Aib]FCK[Cit][Aib]NC[Tle]T[X1][dK](DOTA)-NH2; disulfide 4-9)	> 501	200 to 1260

Second part, the compound after the results:

Kd [1] [nM]	IC50 [2] [nM]	Structure (SMILES)
126 to 501	200 to 1260	CC(=O)N[C@H](C(=O)NC(C)(C)C(=O)N[C@@H](Cc1ccccc1)C(=O)N[C@H]1CSSC[C@@H](C(=O)N[C@H](C(=O)N[C@H](C(N)=O)[C@@H](C)O)C(C)(C)C)NC(=O)[C@H](CC(N)=O)NC(=O)C(C)(C)NC(=O)[C@H](CCCNC(=N)N)N(C)C(=O)[C@H](CCCCN)NC1=O)[C@@H](C)O [PSM-0235, Ac-Thr-Aib-Phe-[Cys-Lys-Nmr-Aib-Asn-Cys]-Tle-Thr-NH2] (Ac-T[Aib]FCK[NMeR][Aib]NC[Tle]T-NH2; disulfide 4-9)
< 12.6	< 200	CC(=O)N[C@H](C(=O)NC(C)(C)C(=O)N[C@@H](Cc1ccc(Cl)cc1)C(=O)N[C@H]1CSSC[C@@H](C(=O)N[C@H](C(=O)N[C@H](C(N)=O)[C@@H](C)O)C(C)(C)C)NC(=O)[C@H](Cc2c[nH]c3ccccc23)NC(=O)C(C)(C)NC(=O)[C@H](CCCNC(N)=O)NC(=O)[C@H](CCCCN)NC1=O)[C@@H](C)O [PSM-0238, Ac-Thr-Aib-Pcf-[Cys-Lys-Cit-Aib-Trp-Cys]-Tle-Thr-NH2] (Ac-T[Aib][Phe(4-Cl)]CK[Cit][Aib]WC[Tle]T-NH2; disulfide 4-9)
< 12.6	< 200	CNCCCC[C@@H]1NC(=O)[C@@H](NC(=O)[C@H](Cc2ccc(Cl)cc2)NC(=O)C(C)(C)NC(=O)[C@@H](NC(=O)CC2CCN(C(=O)CN3CCN(CC(=O)O)CCN(CC(=O)O)CCN(CC(=O)O)CC3)CC2)[C@@H](C)O)CSSC[C@@H](C(=O)N[C@H](C(=O)N[C@H](C(N)=O)[C@@H](C)O)C(C)(C)C)NC(=O)[C@H](CC(N)=O)NC(=O)C(C)(C)NC(=O)[C@H](CCCNC(=N)N(C)C)NC1=O [PSM-0247, DOTA-Cmp-Thr-Aib-Pcf-[Cys-Lys(Me)-RMe2-Aib-Asn-Cys]-Tle-Thr-NH2] ({DOTA}-[X1]T[Aib][Phe(4-Cl)]C[Lys(Me)][Arg(Me2a)][Aib]NC[Tle]T-NH2; disulfide 5-10)
< 12.6	< 200	CC(=O)N[C@H](C(=O)NC(C)(C)C(=O)N[C@@H](Cc1cccc2ccccc12)C(=O)N[C@H]1CSSC[C@@H](C(=O)N[C@H](C(=O)N[C@H](C(=O)N[C@@H](CC(=O)O)C(N)=O)[C@@H](C)O)C(C)(C)C)NC(=O)[C@H](CC(N)=O)NC(=O)C(C)(C)NC(=O)[C@H](CCCNC(=N)N)NC(=O)[C@H](CCCCN)NC1=O)[C@@H](C)O [PSM-0249, Ac-Thr-Aib-1Ni-[Cys-Lys-Arg-Aib-Asn-Cys]-Tle-Thr-Asp-NH2] (Ac-T[Aib][1Nal]CKR[Aib]NC[Tle]TD-NH2; disulfide 4-9)
< 12.6	200 to 1260	C[C@@H](O)[C@H](NC(=O)CC1CCN(C(=O)CN2CCN(CC(=O)O)CCN(CC(=O)O)CCN(CC(=O)O)CC2)CC1)C(=O)NC(C)(C)C(=O)N[C@@H](Cc1ccc(Cl)cc1)C(=O)N[C@H]1CSSC[C@@H](C(=O)N[C@H](C(=O)N[C@H](C(=O)NCCCOCCOCCOCCCNC(=O)CCC(=O)NCCCOCCOCCOCCCNC(=O)CCC(=O)N[C@@H](CCCCNC(=O)CCCC[C@@H]2SC[C@@H]3NC(=O)N[C@@H]32)C(N)=O)[C@@H](C)O)C(C)(C)C)NC(=O)[C@H](CC(N)=O)NC(=O)C(C)(C)NC(=O)[C@H](CCCNC(=N)N)NC(=O)[C@H](CCCCN)NC1=O [PSM-0250, DOTA-Cmp-Thr-Aib-Pcf-[Cys-Lys-Arg-Aib-Asn-Cys]-Tle-Thr-Ttds-Ttds-Lys(Bio)-NH2] ({DOTA}-[X1]T[Aib][Phe(4-Cl)]CKR[Aib]NC[Tle]T-X14; disulfide 5-10)
126 to 501	200 to 1260	CC(=O)N[C@H](C(=O)NC(C)(C)C(=O)N[C@@H](Cc1ccccc1)C(=O)N[C@H]1CSSC[C@@H](C(=O)N[C@H](C(=O)N[C@H](C(=O)N[C@@H](CC(=O)O)C(N)=O)[C@@H](C)O)C(C)(C)C)NC(=O)[C@H](CC(N)=O)NC(=O)C(C)(C)NC(=O)[C@H](CCC(=O)O)NC(=O)[C@H](CCCCN)NC1=O)[C@@H](C)O [PSM-0253, Ac-Thr-Aib-Phe-[Cys-Lys-Glu-Aib-Asn-Cys]-Tle-Thr-Asp-NH2] (Ac-T[Aib]FCKE[Aib]NC[Tle]TD-NH2; disulfide 4-9)
